Each structure is given as a SMILES string.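 Growth conditions: 96-well plates. Treatment: test compound, 48 hours, 5 concentrations. Analysis: linear interpolation between bracketing concentrations; unreached endpoints set to highest concentration. TGI: concentration producing complete growth inhibition.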

Holding throughout (experiment): NCI anticancer screen, dose series, 48 h
Assay [1] deals with 786-0 renal.
Assay [2] has as its system HCC-2998 colon.
The test system of assay [3] is IGROV1 ovarian.
Assay [4] relates to MDA-MB-435.
Assay [5] concerns MDA-N.
In assay [6] the test system is OVCAR-3 ovarian.
For assay [7], the system named is RXF 393 renal.
In assay [8] the test system is SF-268 CNS.
The subject of assay [9] is SF-295 CNS.
Assay [10] concerns SK-OV-3 ovarian.
Assay [11] deals with SNB-75 CNS.

As to `COc1ccc2c(c1)nc1n2C(c2c(F)cccc2F)SC1` (stereo not given), the TGI in assay [1], in assay [2], in [3], in assay [4], in assay [5] and in [6] was > 100 µM each time. Further, the TGI in assay [7], in assay [8], in [9], in [10] and in assay [11] was > 100 µM throughout.
`COC(=O)C1=C(O)C(C(=O)OC)[C@]2(O)[C@H](C(=O)OC)[C@H]1C[C@@H](c1ccc(Cl)cc1Cl)[C@H]2C(=O)OC` (stereo not given in full): the TGI is > 100 µM in assay [1]; 21.9 µM in [2]; 19.3 µM in [3]; 21.2 µM in assay [4]; 11 µM in [5]; 24.9 µM in assay [6]. Moreover, the TGI was 33.7 µM in assay [7]; 38.1 µM in assay [8]; 31.6 µM in assay [9]; 47.9 µM in assay [10]; 37.2 µM in assay [11].
As to `COc1ccc(C[C@H]2NC[C@H](OC(C)=O)[C@H]2OC(C)=O)cc1`, the TGI in [1] came out at 1.05 µM; in assay [2] it was 0.357 µM; in assay [3], 0.674 µM; in assay [4], 1.23 µM; in assay [5], 0.732 µM; in assay [6], 0.85 µM. Also, the TGI in [7] is 0.651 µM; in [8] it was 0.308 µM; in assay [9], 4.26 µM; in assay [10] it was 2.56 µM; in assay [11], 0.362 µM.
Turning to `CNc1nc2c(C)ccc3nc(N(C)C)nc-3c2n1C`, the TGI in [1], in assay [2], in assay [3], in [4], in assay [5] and in assay [6] was > 10 µM each time. The TGI in assay [7], in assay [8], in assay [9], in [10] and in assay [11] was > 10 µM in each case.
On to `O=S(=O)(O)c1ccc(N=Nc2c(O)ccc3ccccc23)cc1`, for which the TGI in [1], in assay [2], in [3], in assay [4], in assay [5] and in assay [6] was > 100 µM each time. The TGI in [7], in assay [8], in assay [9], in assay [10] and in assay [11] was > 100 µM each time.
With `CN(C)Cc1cc(N=Nc2c(Cl)cccc2Cl)ccc1O`, the TGI in assay [1], in [2], in assay [3], in assay [4], in assay [5] and in [6] was > 100 µM each time. The TGI in assay [7], in [8], in assay [9], in assay [10] and in assay [11] was > 100 µM in each case.
Take `CCOC(=O)/C(=C\NC[C@@H](C)O)c1nc2ccccc2[nH]1`: the TGI in [1], in assay [2], in assay [3], in assay [4], in assay [5] and in [6] was > 100 µM in each case. Further, the TGI in assay [7], in [8], in [9], in [10] and in [11] was > 100 µM throughout.
For `CN(C)c1ccc(/C=C(\NC(=O)c2ccccc2)c2nc3ccccc3c(=O)o2)cc1`, the TGI in [1], in assay [2], in [3], in assay [4], in assay [5] and in assay [6] was > 100 µM in each case. Moreover, the TGI in assay [7], in [8], in [9], in assay [10] and in assay [11] was > 100 µM in each case.
As to `O=C(/C=C/c1ccsc1)c1cccs1`, the TGI in [1] was > 100 µM; in [2] it was 34.7 µM; in [3], > 100 µM; in [4], > 10 µM; in assay [5] it was > 100 µM; in assay [6], 57.3 µM. For the same compound, the TGI in assay [7] is 42.9 µM; in assay [8], 81.2 µM; in assay [9], > 100 µM; in assay [10], > 100 µM; in assay [11] it was > 100 µM.
With `Cc1nc2ccc(S(=O)(=O)Nc3ccccn3)cc2c(=O)n1NS(=O)(=O)c1ccccn1`, the TGI in [1], in assay [2], in assay [3], in assay [4], in assay [5] and in assay [6] was > 100 µM in each case. Further, the TGI in [7], in assay [8], in assay [9], in [10] and in [11] was > 100 µM throughout.
As to `CC1(C)C2CC1C(/C=N\OCC(=O)O)=CC2=O` (stereo not given), the TGI in assay [1], in assay [2], in [3], in assay [4], in [5] and in assay [6] was > 100 µM in each case. The TGI in assay [7] was > 100 µM; in assay [8], > 100 µM; in assay [9], > 100 µM; in assay [10] it was > 100 µM; in assay [11], 97.9 µM.
For the compound `CSC1=C(C)S/C(=C\c2ccc(/C=C3\SC(C)=C(SC)S3)cc2)S1`, the TGI in assay [1], in assay [2], in assay [3], in assay [4], in assay [5] and in assay [6] was > 100 µM throughout. Also, the TGI in [7] is 79 µM; in [8], > 100 µM; in assay [9] it was > 100 µM; in assay [10], > 100 µM; in [11], > 100 µM.
As to `CC(C)C(=O)CC(Sc1ccc(N)cc1)c1ccccc1` (stereo not given), the TGI is > 100 µM in assay [1]; 57.5 µM in assay [2]; > 100 µM in assay [3]; 39.8 µM in assay [4]; 35.5 µM in assay [5]; 67.8 µM in assay [6]. The TGI in [7] is 89.1 µM; in [8], > 100 µM; in assay [9] it was > 100 µM; in [10], 58.4 µM; in assay [11], > 100 µM.
Take `CCOC(=O)C12C3CCC1C2C(=O)C3` (stereo not given): the TGI in assay [1], in [2], in assay [3], in [4], in assay [5] and in [6] was > 100 µM each time. The TGI in assay [7], in assay [8], in assay [9], in [10] and in [11] was > 100 µM each time.
Consider `CCCCCCCCCCCCOCCCCCCCCC/C=C/c1ccc2c(c1)OCCOCCOCCOCCO2`, for which the TGI amounted to 26.6 µM in [1]; 44.7 µM in assay [2]; 50.6 µM in [3]; 33.8 µM in assay [4]; 36.2 µM in [5]; 40.6 µM in assay [6]. Besides, the TGI in assay [7] was 36.4 µM; in [8] it was 48.2 µM; in assay [9], 34.2 µM; in assay [10], 34.4 µM; in assay [11], 33.4 µM.
For `[N-]=[N+]=NC1(c2ccccc2)C(=O)c2cccc3c4ccccc4n(c23)C1=O` (stereo not given), the TGI in assay [1] is > 100 µM; in assay [2], > 100 µM; in assay [3], > 100 µM; in [4], 92.8 µM; in assay [5], > 100 µM; in assay [6] it was > 100 µM. The TGI in assay [7], in assay [8], in [9], in [10] and in [11] was > 100 µM throughout.
As for `C(=C\c1ccccc1)/Cn1nc(-c2ccccc2)nc1-c1cnccn1`, the TGI in assay [1], in assay [2], in assay [3], in [4], in assay [5] and in [6] was > 100 µM throughout. The TGI in assay [7], in [8], in assay [9], in [10] and in [11] was > 100 µM throughout.
Consider `O=C(c1c(F)c(F)c(F)c(F)c1F)n1c(=O)[nH]c2ccccc21`, for which the TGI is 47.4 µM in [1]; 11.6 µM in [2]; 24.2 µM in [3]; 21.9 µM in [4]; 20.5 µM in [5]; 24 µM in assay [6]. The TGI in [7] was found to be 22 µM; in assay [8] it was 34.1 µM; in assay [9] it was 30.6 µM; in assay [10], 29.7 µM; in assay [11] it was 30.5 µM.
`COC(=O)C1=C(C(=O)OC)C2(c3ccccc3)c3ccccc3C(=O)C1N2C1CCCCC1` (stereo not given): the TGI in assay [1] was > 100 µM; in assay [2], > 77.4 µM; in [3] it was > 100 µM; in [4] it was > 100 µM; in [5] it was > 100 µM; in assay [6], > 100 µM. The TGI in assay [7] was > 89 µM; in assay [8], > 100 µM; in assay [9] it was > 100 µM; in assay [10], > 100 µM; in [11], > 100 µM.
Take `CC(C)/C(Cl)=N/OC(NC(=O)Nc1ccc(Cl)c(Cl)c1)(C(F)(F)F)C(F)(F)F`: the TGI is 22.2 µM in assay [1]; 36 µM in [2]; 35.2 µM in assay [3]; 33.8 µM in assay [4]; 32.3 µM in assay [5]; 11.3 µM in assay [6]. The TGI was 9.23 µM in assay [7]; 39.4 µM in assay [8]; 38.5 µM in [9]; 32.3 µM in assay [10]; 31.3 µM in assay [11].
With `COC(=O)CC(SCCO)SCCO`, the TGI in assay [1], in assay [2], in assay [3], in [4], in assay [5] and in assay [6] was > 100 µM in each case. The TGI in assay [7], in assay [8], in assay [9], in [10] and in assay [11] was > 100 µM in each case.
On to `Cc1cccc2c1CC(C1OC(=O)c3c(C)cccc31)C2=O` (stereo not given), for which the TGI in assay [1], in assay [2], in [3], in [4], in assay [5] and in [6] was > 100 µM each time. Also, the TGI in [7], in assay [8], in [9], in assay [10] and in assay [11] was > 100 µM throughout.
For `O=c1ccc(-c2ccc(-n3ccnc3)cc2)nn1CCO`, the TGI in [1], in assay [2], in assay [3], in [4], in [5] and in assay [6] was > 100 µM each time. Also, the TGI in assay [7], in assay [8], in [9], in assay [10] and in [11] was > 100 µM each time.
As for `COc1ccc(/C=C/C(=N/NC(=O)N/N=C(/C=C/c2ccc(OC)cc2)C(C)C)C(C)C)cc1`, the TGI in [1], in [2], in assay [3], in assay [4], in [5] and in [6] was > 100 µM in each case. The TGI in assay [7], in [8], in assay [9], in assay [10] and in [11] was > 100 µM throughout.
Regarding `Nc1ccc2c(c1)N(C(=O)CCCC(=O)N1CC(CCl)c3ccc(N)cc31)CC2CCl` (stereo not given), the TGI in [1] is > 29.7 µM; in assay [2], > 50 µM; in assay [3], > 11.3 µM; in [4] it was 3.17 µM; in [5], 3.82 µM; in assay [6], > 50 µM. Besides, the TGI in assay [7] was 0.582 µM; in [8], 3.31 µM; in [9], > 50 µM; in [10], 48.6 µM; in [11] it was 2.87 µM.

(Values after PubChem BioAssay (NCI).)
